From ChEMBL document CHEMBL4610119, “Lipophilic Triphosphate Prodrugs of Various Nucleoside Analogues” (J Med Chem, 2020)

What was measured:
[1] = Cytotoxicity in human CEM/0 cells assessed as reduction in cell viability incubated for 4 to 5 days
[2] = tested on: Human immunodeficiency virus 1; assay: microbe, parasite or virus in culture; type: functional, organism-based; conditions: Human immunodeficiency virus 1, 3B, CCRF-CEM
Description: Antiviral activity against HIV1 3B infected in human CEM/0 cells assessed as inhibition of viral-induced giant cell formation incubated for 4 to 5 days by microscopy

[3] = Stability in aqueous 25 mM PBS at pH 7.3 assessed as hydrolysis half life by HPLC analysis; type: physicochemical
[4] = tested on: pig liver esterase; assay: Stability in pH 7.3 PBS assessed as pig liver esterase mediated hydrolysis by measuring half life by HPLC analysis; type: ADME, Sus scrofa
[5] = Stability in human CEM/0 cell extracts assessed as hydrolysis half life by HPLC analysis; type: ADME, CCRF-CEM

SMILES | CC50 ([1]; CEM/0 cells) | EC50 [2] | half-life [3] | half-life [4] | half-life [5] | CC50 ([1]; ccrf-cem)
Cc1cn([C@@H]2C[C@H](CO)[C@@H](O)C2)c(=O)[nH]c1=O | > 250 µM | 36 µM | – | – | – | –
CCCCCCCCCCCCCCCCOC(=O)Oc1ccc(COP(=O)(OCc2ccc(OC(=O)CCCC)cc2)OP(=O)(O)OP(=O)(O)OC[C@H]2O[C@@H](n3cc(/C=C/Br)c(=O)[nH]c3=O)C[C@@H]2O)cc1.N.N (some centres not stated) | 43 µM | 1.49 µM | 62 h | 7 h | 1.31 h | –
CCCCCCCCCCCCCCCCOC(=O)Oc1ccc(COP(=O)(OCc2ccc(OC(=O)CC)cc2)OP(=O)(O)OP(=O)(O)OC[C@H]2C[C@@H](n3cc(C)c(=O)[nH]c3=O)C[C@@H]2O)cc1.N.N (some centres not stated) | 36 µM | 0.52 µM | 74 h | – | – | –
CCCCCCCCCCCCCCCCOC(=O)Oc1ccc(COP(=O)(OCc2ccc(OC(=O)CC)cc2)OP(=O)(O)OP(=O)(O)OC[C@@H]2C=C[C@H](n3cc(C)c(=O)[nH]c3=O)O2)cc1 (some centres not stated) | – | 0.027 µM | – | – | – | –
CCCCCCCCCCCCCCCCOC(=O)Oc1ccc(COP(=O)(OCc2ccc(OC(=O)CC)cc2)OP(=O)(O)OP(=O)(O)OC[C@H]2O[C@@H](n3cc(C)c(=O)[nH]c3=O)C[C@@H]2O)cc1.N.N (some centres not stated) | 14 µM | 10.8 µM | 76 h | – | – | –
CCCCCCCCCCCCCCCCOC(=O)Oc1ccc(COP(=O)(OCc2ccc(OC(=O)CCCC)cc2)OP(=O)(O)OP(=O)(O)OC[C@H]2O[C@@H](n3cc(Cl)c(=O)[nH]c3=O)C[C@@H]2F)cc1.N.N (some centres not stated) | 42 µM | 2.59 µM | 66 h | – | – | –
CCCCCCCCCCCCCCCCOC(=O)Oc1ccc(COP(=O)(OCc2ccc(OC(=O)CC)cc2)OP(=O)(O)OP(=O)(O)OC[C@@H]2O[C@H](n3cc(F)c(N)nc3=O)CS2)cc1.N.N (some centres not stated) | 35 µM | 0.026 µM | 45 h | 2.6 h | 1.49 h | –
CCCCCCCCCCCCCCCCOC(=O)Oc1ccc(COP(=O)(OCc2ccc(OC(=O)CCCC)cc2)OP(=O)(O)OP(=O)(O)OC[C@H]2O[C@@H](n3cc(C)c(=O)[nH]c3=O)C[C@@H]2N=[N+]=[N-])cc1.N.N (some centres not stated) | 42 µM | 0.0037 µM | 84 h | 4 h | 5 h | –
CCCCCCCCCCCCCCCCOC(=O)Oc1ccc(COP(=O)(OCc2ccc(OC(=O)CC)cc2)OP(=O)(O)OP(=O)(O)OC[C@H]2O[C@@H](n3cc(Cl)c(=O)[nH]c3=O)C[C@H]2N=[N+]=[N-])cc1.N.N (some centres not stated) | 45 µM | > 45 µM | 67 h | 3 h | 2.52 h | –
CCCCCCCCCCCCCCCCOC(=O)Oc1ccc(COP(=O)(OCc2ccc(OC(=O)CCCC)cc2)OP(=O)(O)OP(=O)(O)OC[C@@H]2O[C@H](n3cc(F)c(N)nc3=O)CS2)cc1.N.N (some centres not stated) | 40.5 µM | 0.0043 µM | 36 h | 2.26 h | 2.78 h | –
CCCCCCCCCCCCCCCCOC(=O)Oc1ccc(COP(=O)(OCc2ccc(OC(=O)CC)cc2)OP(=O)(O)OP(=O)(O)OC[C@H]2O[C@@H](n3cc(/C=C/Br)c(=O)[nH]c3=O)C[C@@H]2O)cc1.N.N (some centres not stated) | 43 µM | 11.2 µM | 56 h | – | – | –
CCCCCCCCCCCCCCCCOC(=O)Oc1ccc(COP(=O)(OCc2ccc(OC(=O)CC)cc2)OP(=O)(O)OP(=O)(O)OC[C@H]2O[C@@H](n3cc(C)c(=O)[nH]c3=O)C[C@@H]2N=[N+]=[N-])cc1.N.N (some centres not stated) | 48 µM | 0.0094 µM | 83 h | – | – | –
CCCCCCCCCCCCCCCCOC(=O)Oc1ccc(COP(=O)(O)OP(=O)(O)OP(=O)(O)OC[C@H]2O[C@@H](n3cc(Cl)c(=O)[nH]c3=O)C[C@@H]2F)cc1 | 54 µM | 2.5 µM | – | – | – | –
[N-]=[N+]=N[C@@H]1C[C@H](n2cc(Cl)c(=O)[nH]c2=O)O[C@@H]1CO | > 100 µM | > 100 µM | – | – | – | –
CCCCCCCCCCCCCCCCOC(=O)Oc1ccc(COP(=O)(OCc2ccc(OC(=O)CC)cc2)OP(=O)(O)OP(=O)(O)OC[C@H]2O[C@@H](n3cc(Cl)c(=O)[nH]c3=O)C[C@@H]2F)cc1.N.N (some centres not stated) | 42 µM | 1.28 µM | 56 h | – | 1.64 h | –
CCCCCCCCCCCCCCCCOC(=O)Oc1ccc(COP(=O)(OCc2ccc(OC(=O)CCCC)cc2)OP(=O)(O)OP(=O)(O)OC[C@@H]2CC[C@H](n3cnc4c(=O)[nH]cnc43)O2)cc1.N.N (some centres not stated) | 43 µM | 0.93 µM | 41 h | 3.5 h | 1.57 h | –
CCCCCCCCCCCCCCCCOC(=O)Oc1ccc(COP(=O)(OCc2ccc(OC(=O)CCCC)cc2)OP(=O)(O)OP(=O)(O)OC[C@@H]2C=C[C@H](n3cc(C)c(=O)[nH]c3=O)O2)cc1 (some centres not stated) | – | 0.032 µM | – | – | – | –
CCCCCCCCCCCCCCCCOC(=O)Oc1ccc(COP(=O)(OCc2ccc(OC(=O)CC)cc2)OP(=O)(O)OP(=O)(O)OC[C@H]2O[C@@H](n3ccc(=O)[nH]c3=O)C[C@H]2N=[N+]=[N-])cc1.N.N (some centres not stated) | 44 µM | > 44 µM | 68 h | – | 1.54 h | –
[N-]=[N+]=N[C@@H]1C[C@H](n2ccc(=O)[nH]c2=O)O[C@@H]1CO | > 250 µM | > 250 µM | – | – | – | –
O=c1[nH]c(=O)n([C@H]2C[C@H](O)[C@@H](CO)O2)cc1/C=C/Br [BRIVUDINE] | 207 µM | > 250 µM | – | – | – | –
O=c1[nH]cnc2c1ncn2[C@H]1CC[C@@H](CO)O1 [DIDANOSINE] | > 250 µM | 16 µM | – | – | – | –
Cc1cn([C@H]2C[C@H](O)[C@@H](CO)O2)c(=O)[nH]c1=O [DOXRIBTIMINE] | 10.6 µM | 4.11 µM | – | – | – | –
Nc1nc(=O)n([C@@H]2CS[C@H](CO)O2)cc1F [EMTRICITABINE] | – | 0.01 µM | – | – | – | > 100 µM
O=c1[nH]c(=O)n([C@H]2C[C@H](F)[C@@H](CO)O2)cc1Cl [RALURIDINE] | 188 µM | > 250 µM | – | – | – | –
Cc1cn([C@H]2C=C[C@@H](CO)O2)c(=O)[nH]c1=O [STAVUDINE] | – | 0.43 µM | – | – | – | > 50 µM
Cc1cn([C@H]2C[C@H](N=[N+]=[N-])[C@@H](CO)O2)c(=O)[nH]c1=O [ZIDOVUDINE] | > 100 µM | 0.005 µM | – | – | – | –
